Measurements as given in PubChem BioAssay AID248 (DTP/NCI, 2004).
Values joined by “and” are separate entries in the source; they are usually repeats but may differ in a detail not shown here. Equal values may be shown once. Inconclusive results and toxic doses are left out. No stated cut-off is given here; in the data, active means T/C of 150% or more; inactive means T/C below 125%.

System: L1210 leukemia ip in BDF1 mice, survival T/C
Test: NCI In Vivo Anticancer Drug Screen. Data for tumor model L1210 Leukemia (intraperitoneal) in B6D2F1 (BDF1) mice
Settings: endpoint: mean survival time, higher = longer survival
Procedure, shortened: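 Tumor cells were implanted, animals were treated, and survival was followed. The result divides the treated measurement by the vehicle-control measurement.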

[1] = dose: 25.0 mg/kg/injection, schedule: Q04DX003 (ip), vehicle: saline with Tween-80
[2] = dose: 50.0 mg/kg/injection, schedule: Q04DX003 (ip), vehicle: saline with Tween-80
[3] = dose: 100.0 mg/kg/injection, schedule: Q01DX001 (ip), vehicle: carboxymethylcellulose (CMC)
[4] = dose: 200.0 mg/kg/injection, schedule: Q01DX001 (ip), vehicle: carboxymethylcellulose (CMC)
[5] = dose: 400.0 mg/kg/injection, schedule: Q01DX001 (ip), vehicle: carboxymethylcellulose (CMC)
[6] = dose: 100.0 mg/kg/injection, schedule: Q04DX003 (ip), vehicle: Klucel (hydroxypropylcellulose) (HPC)
[7] = dose: 200.0 mg/kg/injection, schedule: Q04DX003 (ip), vehicle: Klucel (hydroxypropylcellulose) (HPC)
[8] = dose: 400.0 mg/kg/injection, schedule: Q04DX003 (ip), vehicle: Klucel (hydroxypropylcellulose) (HPC)
[9] = dose: 100.0 mg/kg/injection, schedule: Q01DX001 (ip), vehicle: saline
[10] = dose: 200.0 mg/kg/injection, schedule: Q01DX001 (ip), vehicle: saline
[11] = dose: 400.0 mg/kg/injection, schedule: Q01DX001 (ip), vehicle: saline
[12] = dose: 50.0 mg/kg/injection, schedule: Q01DX009 (ip), vehicle: saline with Tween-80
[13] = dose: 100.0 mg/kg/injection, schedule: Q01DX009 (ip), vehicle: saline with Tween-80
[14] = dose: 100.0 mg/kg/injection, schedule: Q01DX009 (ip), vehicle: Klucel (hydroxypropylcellulose) (HPC)
[15] = dose: 200.0 mg/kg/injection, schedule: Q01DX009 (ip), vehicle: Klucel (hydroxypropylcellulose) (HPC)
[16] = dose: 400.0 mg/kg/injection, schedule: Q01DX009 (ip), vehicle: Klucel (hydroxypropylcellulose) (HPC)
[17] = dose: 200.0 mg/kg/injection, schedule: Q01DX009 (ip), vehicle: saline with Tween-80
[18] = dose: 400.0 mg/kg/injection, schedule: Q01DX009 (ip), vehicle: saline with Tween-80
[19] = dose: 100.0 mg/kg/injection, schedule: Q04DX003 (ip), vehicle: saline with Tween-80
[20] = dose: 100.0 mg/kg/injection, schedule: Q04DX002 (ip), vehicle: saline with Tween-80
[21] = dose: 200.0 mg/kg/injection, schedule: Q04DX002 (ip), vehicle: saline with Tween-80
[22] = dose: 200.0 mg/kg/injection, schedule: Q04DX003 (ip), vehicle: saline with Tween-80
[23] = dose: 400.0 mg/kg/injection, schedule: Q04DX002 (ip), vehicle: saline with Tween-80
[24] = dose: 400.0 mg/kg/injection, schedule: Q04DX003 (ip), vehicle: saline with Tween-80

Measured: T/C

COC(=O)C12Oc3ccc(-c4ccc5c(c4O)C(O)=C4C(=O)CC(C)C(O)C4(C(=O)OC)O5)c(O)c3C(O)=C1C(=O)CC(C)C2O (stereo not given)
inactive: dose: 1.56 mg/kg/injection, schedule: Q01DX009 (ip), vehicle: saline with Tween-80 104 % of control | dose: 3.13 mg/kg/injection, schedule: Q01DX009 (ip), vehicle: saline with Tween-80 100 % of control | dose: 6.25 mg/kg/injection, schedule: Q01DX009 (ip), vehicle: saline with Tween-80 105 % of control and 91 % of control | dose: 12.5 mg/kg/injection, schedule: Q04DX003 (ip), vehicle: saline with Tween-80 98 % of control | [1] 110 % of control | [2] 104 % of control

Oc1ccccc1C(=NNc1ccccc1)c1ccccc1O
inactive: [3] 115 % of control | [4] 105 % of control | [5] 103 % of control

C=CS(=O)Cc1ccccc1 (stereo not given)
inactive: dose: 12.5 mg/kg/injection, schedule: Q04DX002 (ip), vehicle: saline 112 % of control | dose: 25.0 mg/kg/injection, schedule: Q04DX002 (ip), vehicle: saline 94 % of control | dose: 50.0 mg/kg/injection, schedule: Q04DX002 (ip), vehicle: saline 98 % of control

O=c1oc2ccc(Cl)cc2c2ccccc12
inactive: [6] 98 % of control | [7] 100 % of control | [8] 104 % of control

[Cl][Pt+2][Cl].[NH-]CC1CCCC[N-]1 (stereo not given)
active: dose: 100.0 mg/kg/injection, schedule: Q04DX003 (ip), vehicle: saline 163 % of control
inactive: dose: 3.13 mg/kg/injection, schedule: Q04DX003 (ip), vehicle: saline 111 % of control | dose: 6.25 mg/kg/injection, schedule: Q04DX003 (ip), vehicle: saline 108 % of control | dose: 12.5 mg/kg/injection, schedule: Q04DX003 (ip), vehicle: saline 122 % of control | dose: 200.0 mg/kg/injection, schedule: Q04DX003 (ip), vehicle: saline 120 % of control

CCCCCCCCCCCCSCCC(=O)O
inactive: [9] 98 % of control | [10] 95 % of control | [11] 93 % of control

Cc1ccc(N)c(Br)c1
inactive: [12] 99 % of control | [13] 97 % of control

CCNC(C)(C)C(SSSC(c1ccc(Br)cc1)C(C)(C)NCC)c1ccc(Br)cc1 (stereo not given)
inactive: dose: 25.0 mg/kg/injection, schedule: Q01DX009 (ip), vehicle: water 96 % of control | dose: 50.0 mg/kg/injection, schedule: Q01DX009 (ip), vehicle: water 90 % of control | dose: 100.0 mg/kg/injection, schedule: Q01DX009 (ip), vehicle: water 88 % of control

N#C/C(=C/c1cc(Cl)ccc1O)C(N)=O
inactive: [14] 102 % of control | [15] 95 % of control | [16] 100 % of control

Nc1ccc2c(=O)[nH][nH]c(=O)c2c1
inactive: [13] 98 % of control | [17] 98 % of control | [18] 95 % of control

CCCCCCCCCCCCNC(=O)Nc1cc(C)ccc1C
inactive: [14] 97 % of control | [6] 94 % of control | [15] 86 % of control | [7] 95 % of control | [16] 86 % of control | [8] 97 % of control

CCOC(OCC)c1cc[n+](CCc2ccc(OC)c(OC)c2)cc1
inactive: dose: 25.0 mg/kg/injection, schedule: Q01DX009 (ip), vehicle: saline 101 % of control | [1] 95 % of control | dose: 50.0 mg/kg/injection, schedule: Q01DX009 (ip), vehicle: saline 101 % of control | [2] 88 % of control | dose: 100.0 mg/kg/injection, schedule: Q01DX009 (ip), vehicle: saline 98 % of control | [19] 95 % of control

O=C(CBr)Nc1ccc(S(=O)(=O)F)cc1
inactive: dose: 2.34 mg/kg/injection, schedule: Q01DX009 (ip), vehicle: carboxymethylcellulose (CMC) 94 % of control | dose: 4.68 mg/kg/injection, schedule: Q01DX009 (ip), vehicle: carboxymethylcellulose (CMC) 86 % of control | dose: 9.37 mg/kg/injection, schedule: Q01DX009 (ip), vehicle: carboxymethylcellulose (CMC) 86 % of control | dose: 18.75 mg/kg/injection, schedule: Q04DX003 (ip), vehicle: carboxymethylcellulose (CMC) 101 % of control | dose: 75.0 mg/kg/injection, schedule: Q01DX001 (ip), vehicle: carboxymethylcellulose (CMC) 94 % of control

C=C(Cl)COC(=S)S
inactive: [9] 107 % of control | [10] 103 % of control | [11] 100 % of control

CCOc1ccc(OCC)c(NC(=O)Nc2cc(Cl)ccc2OC)c1
inactive: dose: 100.0 mg/kg/injection, schedule: Q01DX001 (ip), vehicle: saline with Tween-80 95 % of control | [13] 111 % of control and 90 % of control | [20] 98 % of control and 91 % of control | [19] 96 % of control | dose: 200.0 mg/kg/injection, schedule: Q01DX001 (ip), vehicle: saline with Tween-80 88 % of control | [17] 101 % of control and 92 % of control | [21] 94 % of control and 103 % of control | [22] 94 % of control | dose: 400.0 mg/kg/injection, schedule: Q01DX001 (ip), vehicle: saline with Tween-80 87 % of control | [18] 89 % of control | [23] 91 % of control and 92 % of control | [24] 91 % of control

O=S(CCO)c1ccc(Cl)cc1 (stereo not given)
inactive: [20] 100 % of control and 109 % of control | [19] 118 % of control | [21] 102 % of control and 88 % of control | [22] 106 % of control | [23] 98 % of control and 103 % of control | [24] 100 % of control

CCOc1ccc(/C=N/Nc2c3ccccc3nc3ccccc23)cc1OCC
inactive: [9] 92 % of control | [10] 95 % of control

O=C(Nc1ccc(C(=O)Nc2cccc(C3=NCCN3)c2)cc1)c1ccc(C2=NCCN2)cc1
inactive: dose: 1.88 mg/kg/injection, schedule: Q01DX Z (ip), vehicle: saline 89 % of control | dose: 3.75 mg/kg/injection, schedule: Q01DX Z (ip), vehicle: saline 104 % of control | dose: 7.5 mg/kg/injection, schedule: Q01DX Z (ip), vehicle: saline 102 % of control | dose: 15.0 mg/kg/injection, schedule: Q01DX Z (ip), vehicle: saline 124 % of control

O=C(O)CCC(c1ccccc1)(c1ccccc1)c1ccccc1
inactive: [3] 95 % of control | [4] 95 % of control | [5] 101 % of control

CC(=O)CC(=O)NC1CCCCC1
inactive: [13] 105 % of control | [19] 96 % of control | [17] 100 % of control | [22] 94 % of control | [18] 95 % of control | [24] 94 % of control

O=C1Nc2ccccc2/C1=C/C(=O)c1c[nH]c2ccccc12
inactive: [12] 101 % of control | [13] 101 % of control | [17] 96 % of control
